# Assay results reported in patent publication US9682969B2, “Phthalazinone compounds and methods for the treatment of cystic fibrosis” (FLATLEY DISCOVERY LAB, LLC, priority 2013, dated 2017).
# pEC50: −log10 of the molar value.
# Molecular target: human F508del CFTR (Homo sapiens (Human), UniProt P13569, DEL508-508)
# Test: CFTR-YFP High Throughput Assay (YFP flux assay, FRT cells)
# Format: cell-based
# Settings: FRT cells expressing human F508del CFTR and YFP
# Description: This protocol is designed to selectively screen small molecule compounds for F508del CFTR corrector activities in the YFP (yellow fluorescent protein) flux assay. In this protocol, the cells are incubated with testing compounds for 24 hours, washed with PBS, stimulated with forskolin and a standard potentiator, and fluorescence in each plate well is measured kinetically read on a 384-well plate reader, such as the Hamamatsu FDSS-6000.
# YFP fluorescence intensity values are acquired at high speed before and after iodide buffer is injected to the assay cells. Iodide enters the cells via active CFTR channels in the plasma membrane, and quenches the YFP fluorescence. The rate of fluorescence quenching is proportionate to the total CFTR activity in the cell membrane. F508del CFTR correctors increase the number of CFTR molecules in the testing cell plasma membrane, and thereby accelerate YFP quenching.
# This method was initially developed for bench top plate readers (Galietta, J, Jayaraman, S and Verkman, A S. Cell-based assay for high-throughput quantitative screening of CFTR chloride transport agonists. Am. J. Physiol. Cell Physiol. (2001), 281: C173), and was adapted to the HTS format (Sui J, Cotard S, Andersen J, Zhu P, Staunton J, Lee M, Lin S. Optimization of a Yellow fluorescent protein-based iodide influx high-throughput screening assay for cystic fibrosis transmembrane conductance regulator (CFTR) modulators. Assay Drug Dev Technol. (2010), 8: 656-668).
# Fisher Rat Thyroid (FRT) cells stably expressing both human F508del CFTR and a halide-sensitive yellow fluorescent protein (YFP-H148Q/I152L 25,22) (Galietta et al. Am. J. Physiol Cell Physiol 281(5), C1734, 2001) were cultured on plastic surface in Coon's modified Ham's F12 medium supplemented with FBS 10%, L-glutamine 2 mM, penicillin 100 U/ml, and streptomycin […]. G418 (0.75-1.0 mg/ml) and zeocin (3.2 ug/ml) were used for selection of FRT cells expressing F508del CFTR and YFP. For primary screening, FRT cells were plated into 384-well black wall, transparent bottom microtiter plates (Costar; Corning Inc.) at a cell density of 20,000-40,000 per well. Test compound was applied to the cells at varying concentrations ranging from 2 nM-40 μM in either a 2-fold or 3-fold dilution series. Cells were incubated in a cell culture incubator at 37° C. with 5% CO2 for 24-26 h. Assay plates were washed with DPBS media (Thermo, cat# SH30028.02) to remove unbound cells and compound. Stimulation media (25 μL) containing 20 μM Forskolin & 30 μM P3 [6-(Ethyl-phenyl-sulfonyl)-4-oxo-1,4-dihydro-quinoline-3-carboxylic acid 2-methoxy-benzylamide] in Hams F-12 coon's modified media was added to the plate wells and incubated at room temperature for 60-120 min. 25 μL of HEPES-PBS-I buffer (10 mM HEPES, 1 mM MgCl2, 3 mM KCl, 1 mM CaCl2, 150 mM NaI) was then added and fluorescence quench curves (Excitation 500 nm/Emission 540 nm; exposure 136 ms) were immediately recorded on an FDSS-6000 plate reader (Hamamatsu). Quench rates were derived from least squares fitting of the data as described by Sui et al (2010).
# This protocol is designed to selectively screen small molecule compounds for F508del CFTR potentiator activities in the YFP (yellow fluorescent protein) flux assay. Such compounds act acutely to stimulate CFTR already expressed on the membrane surface. In this protocol, the cells are incubated at 27° C. for 24 hours to homogeneously boost F508del CFTR expression in the cell membrane (low temperature correction), washed with PBS, treated with test compound, and CFTR activity is stimulated with forskolin for 1-2 hr. Measurement of ion flux is initiated by addition of iodide-containing buffer, and YFP quenching is kinetically recorded using a 384-well plate reader, such as the Hamamatsu FDSS-6000.
# YFP fluorescence intensity values are acquired at high speed over a 1 min time course before and after iodide buffer is injected to the assay cells. […]
# human F508del CFTR, sequence (P13569 other isoform, or with tags, fused parts or gaps del F508-F508): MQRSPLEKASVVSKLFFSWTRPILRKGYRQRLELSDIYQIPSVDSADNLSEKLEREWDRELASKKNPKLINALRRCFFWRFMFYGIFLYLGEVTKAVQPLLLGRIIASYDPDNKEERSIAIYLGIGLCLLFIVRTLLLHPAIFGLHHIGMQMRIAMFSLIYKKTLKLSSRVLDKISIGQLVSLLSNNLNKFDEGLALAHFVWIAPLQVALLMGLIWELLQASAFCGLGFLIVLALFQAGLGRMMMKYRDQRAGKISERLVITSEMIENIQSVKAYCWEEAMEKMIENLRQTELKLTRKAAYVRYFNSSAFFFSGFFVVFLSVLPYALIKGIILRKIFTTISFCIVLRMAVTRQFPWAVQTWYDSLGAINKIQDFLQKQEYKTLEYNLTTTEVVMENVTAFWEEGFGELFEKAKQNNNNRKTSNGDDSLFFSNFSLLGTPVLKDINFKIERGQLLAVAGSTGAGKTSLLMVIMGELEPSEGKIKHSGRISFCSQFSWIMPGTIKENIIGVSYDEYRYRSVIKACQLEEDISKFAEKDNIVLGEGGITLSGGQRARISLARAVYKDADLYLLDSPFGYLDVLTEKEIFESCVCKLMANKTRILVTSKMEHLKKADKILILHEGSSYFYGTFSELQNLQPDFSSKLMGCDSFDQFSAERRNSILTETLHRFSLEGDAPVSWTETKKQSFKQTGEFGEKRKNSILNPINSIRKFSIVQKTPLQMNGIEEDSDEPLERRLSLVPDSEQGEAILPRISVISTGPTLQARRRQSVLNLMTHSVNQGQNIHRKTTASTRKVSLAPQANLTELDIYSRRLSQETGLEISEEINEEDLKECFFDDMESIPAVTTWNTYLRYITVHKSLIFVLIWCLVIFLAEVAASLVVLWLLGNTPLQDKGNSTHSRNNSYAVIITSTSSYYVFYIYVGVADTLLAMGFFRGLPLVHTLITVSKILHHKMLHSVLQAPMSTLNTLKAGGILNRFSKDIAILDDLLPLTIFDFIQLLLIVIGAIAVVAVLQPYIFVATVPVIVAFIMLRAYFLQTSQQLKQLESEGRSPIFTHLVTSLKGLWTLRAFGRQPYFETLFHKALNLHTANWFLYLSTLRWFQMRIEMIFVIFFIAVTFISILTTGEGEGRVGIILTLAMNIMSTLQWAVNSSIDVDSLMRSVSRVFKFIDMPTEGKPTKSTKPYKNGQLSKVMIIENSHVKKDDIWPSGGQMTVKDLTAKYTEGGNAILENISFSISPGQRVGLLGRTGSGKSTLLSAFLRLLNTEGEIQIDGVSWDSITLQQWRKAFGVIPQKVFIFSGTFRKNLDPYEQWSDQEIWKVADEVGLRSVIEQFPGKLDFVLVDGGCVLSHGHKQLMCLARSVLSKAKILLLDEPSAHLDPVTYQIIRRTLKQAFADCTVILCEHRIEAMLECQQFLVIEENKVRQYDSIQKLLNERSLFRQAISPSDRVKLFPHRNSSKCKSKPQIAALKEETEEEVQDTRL
row,Compound,pEC50
1,"CCOc1ccc2c(-c3cccc(F)c3)nn(CC(=O)N(c3ccc4nc(C)oc4c3)C3CC3)c(=O)c2c1 [Example 21, N-cyclopropyl-2-(7-ethoxy-4-(3-fluorophenyl)-1-oxophthalazin-2(1H)-yl)-N-(2-methylbenzo[d]oxazol-6-yl)acetamide]",> 5.00
2,"Cc1nc2ccc(N(C)C(=O)Cn3nc(-c4cccc(Cl)c4)c4ccc(OCC5CC5)cc4c3=O)cc2o1 [Example 24, 2-(4-(3-chlorophenyl)-7-(cyclopropylmethoxy)-1-oxophthalazin-2(1H)-yl)-N-methyl-N-(2-methylbenzo[d]oxazol-6-yl)acetamide]",> 5.00
3,"Cc1nc2ccc(N(C)C(=O)Cn3nc(-c4cccc(Cl)c4)c4ccc(OC5CCOCC5)cc4c3=O)cc2o1 [Example 29, 2-(4-(3-chlorophenyl)-1-oxo-7-((tetrahydro-2H-pyran-4-yl)oxy)phthalazin-2(1H)-yl)-N-methyl-N-(2-methylbenzo[d]oxazol-6-yl)acetamide]",> 5.00
4,"CCN(C(=O)Cn1nc(-c2cccc(Cl)c2)c2ccc(OC)cc2c1=O)c1ccc2nc(C)oc2c1 [Example 9, 2-(4-(3-chlorophenyl)-7-methoxy-1-oxophthalazin-2(1H)-yl)-N-ethyl-N-(2-methylbenzo[d]oxazol-6-yl)acetamide]",> 5.00
5,"Cc1nc2ccc(N(C)C(=O)Cn3nc(-c4cccc(Cl)c4)c4ccc(OC5CCCCC5)cc4c3=O)cc2o1 [Example 26, 2-(4-(3-chlorophenyl)-7-(cyclohexyloxy)-1-oxophthalazin-2(1H)-yl)-N-methyl-N-(2-methylbenzo[d]oxazol-6-yl)acetamide]",> 5.00
6,"COc1ccc2c(-c3cccc(F)c3)nn(CC(=O)N(c3ccc4nc(C)oc4c3)C3CC3)c(=O)c2c1 [Example 12, N-cyclopropyl-2-(4-(3-fluorophenyl)-7-methoxy-1-oxophthalazin-2(1H)-yl)-N-(2-methylbenzo[d]oxazol-6-yl)acetamide]",> 5.00
7,"CCOc1ccc2c(-c3cccc(Cl)c3)nn(CC(=O)N(C)c3ccc4nc(C)oc4c3)c(=O)c2c1 [Example 19, 2-(4-(3-chlorophenyl)-7-ethoxy-1-oxophthalazin-2(1H)-yl)-N-methyl-N-(2-methylbenzo[d]oxazol-6-yl)acetamide]",> 5.00
8,"Cc1nc2ccc(N(C)C(=O)Cn3nc(-c4cccc(F)c4)c4ccc(OC5CCCCC5)cc4c3=O)cc2o1 [Example 28, 2-(7-(cyclohexyloxy)-4-(3-fluorophenyl)-1-oxophthalazin-2(1H)-yl)-N-methyl-N-(2-methylbenzo[d]oxazol-6-yl)acetamide]",> 5.00
9,"Cc1nc2ccc(N(C)C(=O)Cn3nc(-c4cccc(F)c4)c4ccc(O)cc4c3=O)cc2o1 [Example 13, 2-(4-(3-fluorophenyl)-7-hydroxy-1-oxophthalazin-2(1H)-yl)-N-methyl-N-(2-methylbenzo[d]oxazol-6-yl)acetamide]",> 5.00
10,"COc1ccc2c(-c3cccc(Cl)c3)nn(CC(=O)N(C)c3ccc4nc(C)oc4c3)c(=O)c2c1 [Example 4, 2-(4-(3-chlorophenyl)-7-methoxy-1-oxophthalazin-2(1H)-yl)-N-methyl-N-(2-methylbenzo[d]oxazol-6-yl)acetamide]",> 5.00
11,"Cc1nc2ccc(N(C)C(=O)Cn3nc(-c4cccc(F)c4)c4ccccc4c3=O)cc2o1 [Example 2, 2-(4-(3-fluorophenyl)-1-oxophthalazin-2(1H)-yl)-N-methyl-N-(2-methylbenzo[d]oxazol-6-yl)acetamide]",> 5.00
12,"[2H]C([2H])([2H])N(C(=O)Cn1nc(-c2cccc(Cl)c2)c2ccc(OCC3CC3)cc2c1=O)c1ccc2nc(C)oc2c1 [Example 23, 2-(4-(3-chlorophenyl)-7-(cyclopropylmethoxy)-1-oxophthalazin-2(1H)-yl)-N-(methyl-d3)-N-(2-methylbenzo[d]oxazol-6-yl)acetamide]",> 5.00
13,"CCN(C(=O)Cn1nc(-c2cccc(F)c2)c2ccc(OC)cc2c1=O)c1ccc2nc(C)oc2c1 [Example 8, N-ethyl-2-(4-(3-fluorophenyl)-7-methoxy-1-oxophthalazin-2(1H)-yl)-N-(2-methylbenzo[d]oxazol-6-yl)acetamide]",> 5.00
14,"Cc1nc2ccc(N(C(=O)Cn3nc(-c4cccc(F)c4)c4ccc(O)cc4c3=O)C3CC3)cc2o1 [Example 14, N-cyclopropyl-2-(4-(3-fluorophenyl)-7-hydroxy-1-oxophthalazin-2(1H)-yl)-N-(2-methylbenzo[d]oxazol-6-yl)acetamide]",> 5.00
15,"CCOc1ccc2c(-c3cccc(Cl)c3)nn(CC(=O)N(c3ccc4nc(C)oc4c3)C3CC3)c(=O)c2c1 [Example 18, 2-(4-(3-chlorophenyl)-7-ethoxy-1-oxophthalazin-2(1H)-yl)-N-cyclopropyl-N-(2-methylbenzo[d]oxazol-6-yl)acetamide]",> 5.00
16,"[2H]C([2H])([2H])N(C(=O)Cn1nc(-c2cccc(F)c2)c2ccc(OCC)cc2c1=O)c1ccc2nc(C)oc2c1 [Example 22, 2-(7-ethoxy-4-(3-fluorophenyl)-1-oxophthalazin-2(1H)-yl)-N-(methyl-d3)-N-(2-methylbenzo[d]oxazol-6-yl)acetamide]",> 5.00
17,"COc1ccc2c(-c3cccc(F)c3)nn(CC(=O)N(C)c3ccc4nc(C)oc4c3)c(=O)c2c1 [Example 3, 2-(4-(3-fluorophenyl)-7-methoxy-1-oxophthalazin-2(1H)-yl)-N-methyl-N-(2-methylbenzo[d]oxazol-6-yl)acetamide]",> 5.00
18,"[2H]C([2H])([2H])N(C(=O)Cn1nc(-c2cccc(Cl)c2)c2ccc(OC(C)C)cc2c1=O)c1ccc2nc(C)oc2c1 [Example 20, 2-(4-(3-chlorophenyl)-7-isopropoxy-1-oxophthalazin-2(1H)-yl)-N-(methyl-d3)-N-(2-methylbenzo[d]oxazol-6-yl)acetamide]",> 5.00
19,"[2H]C([2H])(C)N(C(=O)Cn1nc(-c2cccc(Cl)c2)c2ccc(OC)cc2c1=O)c1ccc2nc(C)oc2c1 [Example 7, 2-(4-(3-chlorophenyl)-7-methoxy-1-oxophthalazin-2(1H)-yl)-N-(ethyl-1,1-d2)-N-(2-methylbenzo[d]oxazol-6-yl)acetamide]",> 5.00
20,"CCOc1cc2c(=O)n(CC(=O)N(C)c3ccc4nc(C)oc4c3)nc(-c3cccc(F)c3)c2cc1Cl [Example 30, 2-(6-chloro-7-ethoxy-4-(3-fluorophenyl)-1-oxophthalazin-2(1H)-yl)-N-methyl-N-(2-methylbenzo[d]oxazol-6-yl)acetamide]",> 5.00
21,"[2H]C([2H])([2H])N(C(=O)Cn1nc(-c2cccc(Cl)c2)c2ccc(OC)cc2c1=O)c1ccc2nc(C)oc2c1 [Example 6, 2-(4-(3-chlorophenyl)-7-methoxy-1-oxophthalazin-2(1H)-yl)-N-(methyl-d3)-N-(2-methylbenzo[d]oxazol-6-yl)acetamide]",> 5.00
22,"Cc1nc2ccc(N(C)C(=O)Cn3nc(-c4cccc(F)c4)c4ccc(OC5CCOCC5)cc4c3=O)cc2o1 [Example 27, 2-(4-(3-fluorophenyl)-1-oxo-7-((tetrahydro-2H-pyran-4-yl)oxy)phthalazin-2(1H)-yl)-N-methyl-N-(2-methylbenzo[d]oxazol-6-yl)acetamide]",> 5.00
23,"COc1ccc2c(-c3cccc(Cl)c3)nn(CC(=O)N(c3ccc4nc(C)oc4c3)C3CC3)c(=O)c2c1 [Example 5, 2-(4-(3-chlorophenyl)-7-methoxy-1-oxophthalazin-2(1H)-yl)-N-cyclopropyl-N-(2-methylbenzo[d]oxazol-6-yl)acetamide]",> 5.00
